Data published in US6551582B2, “Deodorant composition” (Sumitomo Chemical Company, Limited, priority 2001, dated 2003).

Test: Test Example 1: deodorant effect of sprayed liquid formulations against ammonia gas in a flask
Conditions: after 30 minutes, about 20° C.
Experimental: Into a glass Erlenmeyer flask (1L-volume), 1 mL of 1.8% aqueous solution of ammonia was placed at room temperature (about 20° C.). After the flask was sealed with a rubber stopper and shaken to be filled with ammonia gas, the concentration of ammonia was measured with a gas detector tube (No. 3HM, Gastec Corporation).
Next, 1 mL of each formulation obtained in Production example 1 was sprayed into the flask. The concentration of ammonia was measured with a gas detector tube (No. 3HM, Gastec Corporation) after 30 minutes. A control solution (1 mL) of a mixed solvent without the present deodorant compound was added into an Erlenmeyer flask (1 L-volume) containing ammonia gas, and then the […] of ammonia was measured with the same method after 30 minutes.
Dehydroacetic acid was formulated in the same manner as Production example 1, and then comparative test was carried out by the same method.
The formulations obtained in Production example 2 and 3 were provided to the same test.
Deodorant rates were calculated by formula 1. [formula]

dehydroacetic acid
Deodorant rate (%) Production example 1 (1 mL formulation of Production example 1 (5 parts compound, 80 parts ethanol, 15 parts water) sprayed): 20% | Deodorant rate (%) Production example 2 (1 mL formulation of Production example 2 (5 parts compound, 80 parts isopropyl alcohol, 15 parts water) sprayed): 25% | Deodorant rate (%) Production example 3 (1 mL formulation of Production example 3 (5 parts compound, 80 parts glycerin, 15 parts water) sprayed): 25%
